Experimental data taken from patent US10155749B2, “Substituted benzimidazolium compounds useful in the treatment of respiratory diseases” (Boehringer Ingelheim International GmbH, priority 2015, dated 2018).

Columns and labels:
[1] = target: T1, ENaC (Epithelial Sodium Channel) (Mus musculus, UniProt Q61180+Q9WU38+Q9WU39); assay: Ussing Chamber assay (short circuit current, amiloride sensitive I_SC) in M-1 cells; type: cell-based; details: Mouse kidney M-1 cells, apical application, 37° C.
T1 construct: Mouse kidney M-1 cells were cultivated in DMEM containing 5% FCS and 5 μM dexamethasone; endogenous in cells; host or cells: Mouse kidney M-1 cells
T1 sequence (Q61180 1-699): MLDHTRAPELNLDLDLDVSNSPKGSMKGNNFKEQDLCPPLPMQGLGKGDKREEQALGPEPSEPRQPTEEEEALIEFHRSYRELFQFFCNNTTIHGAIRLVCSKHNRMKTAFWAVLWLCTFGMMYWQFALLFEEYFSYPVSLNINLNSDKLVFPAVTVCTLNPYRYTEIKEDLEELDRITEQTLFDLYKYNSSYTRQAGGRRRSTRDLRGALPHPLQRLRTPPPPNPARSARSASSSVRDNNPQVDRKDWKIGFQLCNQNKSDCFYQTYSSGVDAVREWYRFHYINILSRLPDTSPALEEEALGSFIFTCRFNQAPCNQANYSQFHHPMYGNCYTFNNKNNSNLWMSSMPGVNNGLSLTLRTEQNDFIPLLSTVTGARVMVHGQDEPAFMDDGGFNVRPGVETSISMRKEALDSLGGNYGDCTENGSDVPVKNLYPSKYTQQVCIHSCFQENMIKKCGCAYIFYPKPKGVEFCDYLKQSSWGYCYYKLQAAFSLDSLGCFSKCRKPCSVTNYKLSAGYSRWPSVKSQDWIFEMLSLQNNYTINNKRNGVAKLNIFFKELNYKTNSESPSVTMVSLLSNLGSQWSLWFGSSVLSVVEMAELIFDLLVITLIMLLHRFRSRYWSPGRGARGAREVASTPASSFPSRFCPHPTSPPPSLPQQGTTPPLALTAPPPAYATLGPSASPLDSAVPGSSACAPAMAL
T1 sequence (Q9WU38 1-638): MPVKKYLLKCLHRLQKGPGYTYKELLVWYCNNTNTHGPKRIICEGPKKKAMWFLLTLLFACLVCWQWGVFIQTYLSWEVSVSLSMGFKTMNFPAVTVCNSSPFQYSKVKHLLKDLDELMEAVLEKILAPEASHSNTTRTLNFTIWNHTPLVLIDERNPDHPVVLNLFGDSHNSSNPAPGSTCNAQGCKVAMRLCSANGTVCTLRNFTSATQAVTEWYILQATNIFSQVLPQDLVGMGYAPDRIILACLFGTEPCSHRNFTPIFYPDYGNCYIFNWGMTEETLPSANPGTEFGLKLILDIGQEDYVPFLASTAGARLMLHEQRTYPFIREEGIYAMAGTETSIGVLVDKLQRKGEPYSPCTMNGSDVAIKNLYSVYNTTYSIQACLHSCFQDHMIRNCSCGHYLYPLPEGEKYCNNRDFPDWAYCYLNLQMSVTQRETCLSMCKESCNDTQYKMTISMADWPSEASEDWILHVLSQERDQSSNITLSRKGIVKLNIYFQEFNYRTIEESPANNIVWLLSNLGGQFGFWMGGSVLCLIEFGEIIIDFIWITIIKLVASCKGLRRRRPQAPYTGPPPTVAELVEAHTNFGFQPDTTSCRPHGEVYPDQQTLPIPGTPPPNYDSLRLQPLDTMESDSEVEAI
T1 sequence (Q9WU39 1-655): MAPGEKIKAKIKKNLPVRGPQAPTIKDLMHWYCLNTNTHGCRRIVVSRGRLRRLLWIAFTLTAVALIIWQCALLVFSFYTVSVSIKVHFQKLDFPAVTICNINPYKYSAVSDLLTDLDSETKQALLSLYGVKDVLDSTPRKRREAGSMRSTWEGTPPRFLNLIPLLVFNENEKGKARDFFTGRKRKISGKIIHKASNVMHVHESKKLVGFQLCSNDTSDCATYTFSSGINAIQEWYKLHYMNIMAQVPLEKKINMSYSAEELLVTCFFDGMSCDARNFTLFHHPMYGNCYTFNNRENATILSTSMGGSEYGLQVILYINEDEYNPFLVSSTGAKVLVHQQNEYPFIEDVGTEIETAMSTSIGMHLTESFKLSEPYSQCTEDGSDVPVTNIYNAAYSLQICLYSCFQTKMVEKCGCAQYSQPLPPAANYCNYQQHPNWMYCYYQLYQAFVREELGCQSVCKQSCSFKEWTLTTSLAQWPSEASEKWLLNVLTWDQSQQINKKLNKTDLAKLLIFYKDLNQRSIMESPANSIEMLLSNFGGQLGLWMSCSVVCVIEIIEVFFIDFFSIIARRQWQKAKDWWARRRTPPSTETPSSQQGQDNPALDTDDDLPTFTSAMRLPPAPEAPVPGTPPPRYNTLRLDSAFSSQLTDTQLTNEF
Experimental: The IC50 values of the example compounds given above were determined in the Ussing Chamber assay.
Ussing Chamber: Mouse kidney M-1 cells were cultivated in DMEM containing 5% FCS and 5 μM dexamethasone for 10 to 12 days on polyester transwell filters. Filters were inserted into a teflon-coated well-plate which fit into the ussing chamber system. Prior to measurement the medium of M-1 cells was replaced with Caco-2 transport buffer (Invitrogen, Germany). During measurements, the Ussing chamber temperature was kept at 37° C. Short circuit currents (I_sc) were measured in the voltage-clamp mode with the software package Lab View for data acquisition and analysis. The transepithelial electrical resistance (TEER) was determined by the application of voltage steps of ±5 mV every 5 sec. Compounds were administered at a final concentration of 3 μM or at increasing concentrations (1-3-10 μM) to the apical solution. At the end of each experiment the amiloride sensitive I_SC was measured by adding 3 μM amiloride to the apical compartment. Results are expressed as inhibition in percent of the amiloride effect or as IC50.

[2] = Permeability in CALU-3 cells; type: in vitro ADME; details: human, CALU-3 monolayers, pH 7.4, 37° C., 10 μM compound; for Papp A→B at 90 min, 10 μM: apical-to-basal; for Papp B→A at 90 min, 10 μM: basal-to-apical
Experimental: Permeability in CALU-3 Cells:
Permeability measurements across polarized, confluent CALU-3 cell monolayers grown on permeable filter supports are used to provide information on the potential of a compound to pass the lung epithelium. Apparent permeability coefficients (Papp) of the compounds across the CALU-3 cell monolayers are measured (pH 7.4, 37° C.) in apical-to-basal (AB) and basal-to-apical (BA) transport direction.
CALU-3 cells (1-2×10^5 cells/1 cm^2 area) are seeded on filter inserts (Costar transwell polycarbonate filters, 0.4 μm pore size) and cultured (for 10-12 days DMEM) until tight monolayers are formed. Compounds of interest are dissolved in appropriate solvent (DMSO, 10 mM stock solution). Stock solutions are diluted with HTP-4 buffer (128.13 mM NaCl, 5.36 mM KCl, 1 mM MgSO4, 1.8 mM CaCl2, 4.17 mM NaHCO3, 1.19 mM Na2HPO4×7H2O, 0.41 mM NaH2PO4×H2O, 15 mM HEPES, 20 mM glucose, 0.25% BSA, pH 7.4) to prepare the transport solutions (10 μM compound, final DMSO<=0.5%). The transport solution (TL) is applied to the apical or basolateral donor side for measuring A-B or B-A permeability (3 filter replicates), respectively. The receiver side contains the same buffer as the donor side. After 30 min of accommodation, samples are collected at the start t0=0 min and at the end of the experiment tn=90 min from the donor and at 0, 30, 60, and 90 min also from the receiver chamber. Volume removed is […] by HTP-4 buffer. The compound concentration in the samples is measured by HPLC-MS/MS or scintillation counting. The permeability coefficient (Papp) and efflux ratio are calculated according to: Papp [cm/s]=(concentration receiver [nM]*volume receiver [mL]/time interval [sec])*(1/filter area)*(1/donor concentration [nM]).

Row | IC50 [1] [nM] | Papp A→B at 90 min, 10 μM [2] [×10⁻⁶ cm/s] | Papp B→A at 90 min, 10 μM [2] [×10⁻⁶ cm/s] | Structure (SMILES)
1 | 2 | 0.04 | 0.06 | CC[n+]1c(CNC(=O)c2nc(Cl)c(N)nc2N)n(CCO)c2cc(OCC(=O)NCCC[n+]3cccc([O-])c3)ccc21.O=C([O-])C(F)(F)F [Example 1.01]
2 | 25 | 0.08 | 0.1 | CC[n+]1c(CNC(=O)c2nc(Cl)c(N)nc2N)n(C[C@H](C)O)c2cc(N(C)C)c(C(=O)N3CCN(C(=O)OC(C)(C)C)CC3)cc21.O=C([O-])C(F)(F)F [Example 1.02]
3 | 1 | 0.1 | 0.01 | CC[n+]1c(CNC(=O)c2nc(Cl)c(N)nc2N)n(C[C@H](C)O)c2cc(OCCN(CP(C)(C)=O)C(=O)CC(C)C)ccc21.O=C([O-])C(F)(F)F [Example 1.05]
4 | 1 | 0.08 | 0.2 | CC[n+]1c(CNC(=O)c2nc(Cl)c(N)nc2N)n(CC2CC2)c2cc(OCC(=O)N(C)Cc3nc(C)ccc3O)ccc21 [Example 1.08]
5 | 8 | 0.1 | 0.04 | CC[n+]1c(CNC(=O)c2nc(Cl)c(N)nc2N)n(CC2CCCCC2)c2cc(OCCOP(=O)(O)CCC[N+](C)(C)C)ccc21 [Example 1.12]
6 | 8 | 0.2 | 0.08 | CCCCCCN(C)C(=O)c1cc2c(cc1O[C@H]1COC[C@@H]1O)n(CCO)c(CNC(=O)c1nc(Cl)c(N)nc1N)[n+]2CC.O=C([O-])C(F)(F)F [Example 1.15]
7 | 2 | 0.2 | 0.3 | CCn1c(CNC(=O)c2nc(Cl)c(N)nc2N)[n+](CC)c2ccc(OCC(=O)N(Cc3nc(C)ccc3O)C[C@H](C)O)cc21.O=C([O-])C(F)(F)F [Example 3.05]
8 | 1 | 0.02 | 0.03 | CCn1c(CNC(=O)c2nc(Cl)c(N)nc2N)[n+](CC)c2ccc(C(=O)NCCN(C)C)cc21.Cl.[Cl-] [Example 3.06]
9 | 15 | 0.08 | 0.08 | CCNC(=O)c1cc2c(cc1OCC(=O)NCCN(C)C)n(CC)c(CNC(=O)c1nc(Cl)c(N)nc1N)[n+]2CC.Cl.[Cl-] [Example 3.17]
10 | 1 | 0.2 | 0.2 | CCn1c(CNC(=O)c2nc(Cl)c(N)nc2N)[n+](CC)c2ccc(OCCNC(=O)CCN(C)C)cc21.Cl [Example 4.01]
11 | 19 | 0.3 | 0.2 | CC[n+]1c(CNC(=O)c2nc(Cl)c(N)nc2N)n(C[C@H](C)O)c2cc(N(C)C)c(C(=O)N3CCN(C(=O)Cc4ccccn4)CC3)cc21.O=C([O-])C(F)(F)F [Example 4.14]
12 | 34 | 0.3 | 0.3 | CCCCCOc1cc2c(cc1C(=O)N1CCN(C(=O)Cc3ccccn3)CC1)[n+](CC)c(CNC(=O)c1nc(Cl)c(N)nc1N)n2C[C@H](C)O.O=C([O-])C(F)(F)F [Example 4.15]
13 | 5 | 0.3 | 0.06 | CCOCCNC(=O)c1cc2c(cc1N1CCOCC1)n(CC)c(CNC(=O)c1nc(Cl)c(N)nc1N)[n+]2CC.[Cl-] [Example 5.01]
14 | 3 | 0.09 | 0.1 | CCn1c(CNC(=O)c2nc(Cl)c(N)nc2N)[n+](CC)c2cc(C(=O)N3CCOCC3)c(N3CCOCC3)cc21 [Example 5.02]
15 | 1 | 0.08 | 0.06 | CCn1c(CNC(=O)c2nc(Cl)c(N)nc2N)[n+](CC)c2ccc(OCCNC(=O)[C@H](C)NC)cc21.Cl.[Cl-] [Example 6.02]
16 | 1 | 0.3 | 0.3 | CCCCCCN1CCC(NC(=O)c2cc3c(cc2F)n(CC)c(CNC(=O)c2nc(Cl)c(N)nc2N)[n+]3CC)CC1.O=CO.O=C[O-] [Example 10.01]
